Data as given in patent US20140248291A1, “Modulation of Cellular Migration” (THE UAB RESEARCH FOUNDATION, priority 2011, published 2014).

Tests used:
B2 receptor = details: cited from earlier work
B2R = details: NG108-15 cells, n=3; read-out: KI, displacement of [3H]-BK binding; cited from earlier work
[1] = in vivo; cited from earlier work
[2] = system: BK-induced ventral root depolarizations; details: rat spinal cord and tail preparation, n=3; cited from earlier work
rat B2R = molecular target: T1, rat B2R (Rattus norvegicus, UniProt P25023); details: n=3, read-out: IC50, BK-induced [3H]-IP3 formation; cited from earlier work
T1 sequence (P25023 1-396): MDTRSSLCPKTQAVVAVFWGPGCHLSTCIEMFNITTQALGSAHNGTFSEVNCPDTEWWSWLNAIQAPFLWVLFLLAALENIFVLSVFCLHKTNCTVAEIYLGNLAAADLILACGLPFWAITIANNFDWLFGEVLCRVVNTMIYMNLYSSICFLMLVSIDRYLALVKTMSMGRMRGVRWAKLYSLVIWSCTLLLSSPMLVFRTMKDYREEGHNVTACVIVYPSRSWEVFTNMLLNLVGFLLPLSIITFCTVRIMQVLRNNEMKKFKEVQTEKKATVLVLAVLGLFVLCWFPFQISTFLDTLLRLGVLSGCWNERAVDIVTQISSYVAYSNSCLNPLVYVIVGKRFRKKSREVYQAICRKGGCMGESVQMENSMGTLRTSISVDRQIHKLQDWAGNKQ

D54-EGFP tumor cells = experiment: tumor invasion/growth in organotypic mouse brain slice cultures; type: cell-based, human
Method: Slice cultures were prepared from brains of P13-P16 BALB/c scid mice (Jackson Laboratory). Coronal brain sections 300 μm thick were sliced with a Vibrotome 3000 sectioning system in ice cold artificial saline. Brain slices were transferred into filter inserts with a polycarbonate membrane (Falcon, BD, pore size 0.45 μm). Filters were placed into 6-well plates containing 1 ml of DMEM supplemented with 8% FCS, 0.2 mM glutamine, 100 U/mL penicillin, and […] streptomycin. After overnight repose the medium was changed to cultivation medium containing 25% heat-inactivated horse serum, 50 mM sodium bicarbonate, 2% glutamine, 25% Hank's balanced salt solution, […] insulin (all from Gibco), 2.46 mg/mL glucose (Sigma Aldrich), 0.8 mg/mL vitamin C (Sigma Aldrich), 100 U/mL penicillin, […] streptomycin (Sigma Aldrich), and 5 mM Tris in DMEM (Gibco). At day 3 of culturing approximately 3000 D54-EGFP tumor cells in a volume of 1 μl were implanted per organotypic brain slice. Cells were injected using a 1 μl hemilton syringe mounted to a micromanipulator. The cell suspension was slowly injected over 30 seconds and subsequently the syringe was slowly pulled out. Gliomas were always inoculated into the right cortex. […] The tumor area was determined using ImageJ software (available from rsbweb.nih.gov). Tumor growth was calculated between day 4 and day 11 of culturing.

**Q.** For `CN(C)CCN(C)CCNC(=O)[C@@H]1CCCN1S(=O)(=O)c1ccc(NNC(=S)NC(c2ccccc2)c2ccccc2)c([N+](=O)[O-])c1` [Bradyzide], which Schild slope (B2 receptor; 45Ca efflux from NG108-15 cells) is on record?
**A.** Its Schild slope is 1.05.

**Q.** What about the “pKB, inhibition of B2 receptor-induced 45Ca efflux” value (B2 receptor; NG108-15 cells, n=5) of the same molecule?
**A.** Its value is 8.0±0.16.

**Q.** What about the Ki (B2R) of the same molecule?
**A.** Its Ki is 0.51 nM.

**Q.** And the oral availability [1]?
**A.** Its oral availability is “orally available”.

**Q.** What about the IC50 [2] of the same molecule?
**A.** The IC50 was 1.6 ± 0.05 nM.

**Q.** What about the IC50 (rat B2R) of the same molecule?
**A.** The IC50 was 11.6 ± 1.4 nM.

**Q.** Which results are given for `N=C(N)NCCCC(NC(=O)[C@H](N)CCCNC(=N)N)C(=O)N1CCC[C@H]1C(=O)N1C[C@H](O)C[C@H]1C(=O)NCC(=O)N[C@@H](Cc1cccs1)C(=O)N[C@@H](CO)C(=O)N1Cc2ccccc2C[C@@H]1C(=O)N1C2CCCCC2C[C@H]1C(=O)N[C@H](CCCNC(=N)N)C(=O)O` (stereo partly drawn) [HOE-140, D-Arg-[Hyp^3, Thi^5, D-Tic^7, Oic^8]bradykinin]?
**A.** tumor growth day 4 to day 11 (D54-EGFP tumor cells; BK and HOE-140 compared to control slices or HOE-140 alone): did not differ significantly; migration (spread) of GFP-expressing tumor cells (D54-EGFP tumor cells; HOE-140 (5 μM) and BK (1 μM) compared to BK alone): significantly reduced migration
